{"source": "patent US20060194259A1", "about": "“Method for isolating an allosteric effector of a receptor” (priority 2002, published 2006)", "key": {"[1]": {"biological_target": "T1, wild-type human receptor NK1 (Homo sapiens, UniProt P25103)", "T1 construct": "expressed in transfected cells; host or cells: HEK 293", "T1 sequence (P25103 whole entry)": "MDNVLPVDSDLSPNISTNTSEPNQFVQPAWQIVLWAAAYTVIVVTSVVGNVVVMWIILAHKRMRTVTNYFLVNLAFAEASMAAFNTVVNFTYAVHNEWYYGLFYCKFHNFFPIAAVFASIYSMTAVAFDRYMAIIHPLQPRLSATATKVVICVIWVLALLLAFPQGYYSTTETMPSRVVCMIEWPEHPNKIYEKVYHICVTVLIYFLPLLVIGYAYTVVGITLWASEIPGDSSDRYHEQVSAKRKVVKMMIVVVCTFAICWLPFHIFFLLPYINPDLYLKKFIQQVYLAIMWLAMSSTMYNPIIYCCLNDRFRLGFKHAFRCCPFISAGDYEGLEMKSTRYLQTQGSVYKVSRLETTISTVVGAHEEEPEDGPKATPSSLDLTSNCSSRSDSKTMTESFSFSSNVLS", "assay": "Calcium response caused by substance P in HEK 293 cells expressing NK1 receptor", "type": "cell-based", "settings": "805 20 μM; substance P 0.1 or 10 nM", "method": "In FIGS. 12A and 12B, a suspension (1×10^6 cells/ml) of HEK 293 cells expressing the wild-type human NK1 receptor, and charged with indo-1 (3 μM) is stimulated by 0.1 nM (FIG. 12A) or 10 nM (FIG. 12B) of substance P(SP) in the presence (black circles) and in the absence (white circles) of 805 molecules (20 μM).\nThe cells are put into suspension at a rate of 1,000,000 cells/ml in Hepes buffer (op. cit.) and arranged in a spectrofluorimeter cuvette. The excitation wavelength is fixed at 338 nm and the emission is recorded at 400 nm. The responses traced are the signals recorded at 400 nm."}, "[2]": {"biological_target": "T2, receptor EGFP-NK2R (UniProt P16610)", "T2 sequence (P16610 1-390)": "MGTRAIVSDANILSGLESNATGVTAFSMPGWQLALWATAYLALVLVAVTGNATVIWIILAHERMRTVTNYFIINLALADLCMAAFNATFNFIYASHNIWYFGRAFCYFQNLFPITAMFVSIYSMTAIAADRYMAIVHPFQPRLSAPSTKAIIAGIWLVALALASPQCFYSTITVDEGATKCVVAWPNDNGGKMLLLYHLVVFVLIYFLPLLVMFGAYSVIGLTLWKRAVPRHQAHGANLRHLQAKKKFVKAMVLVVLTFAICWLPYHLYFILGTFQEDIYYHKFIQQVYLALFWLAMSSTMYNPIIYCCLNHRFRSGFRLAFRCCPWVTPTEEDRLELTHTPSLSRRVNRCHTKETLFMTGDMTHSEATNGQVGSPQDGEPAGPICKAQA", "assay": "Dissociation kinetics of NKA-Bo bound to EGFP-NK2R by fluorescence energy transfer", "type": "binding", "set-up": "% al (max): maximum value observed for the increase in amplitude of the rapid dissociation rate; ns = n; other: 20 nM of NK; % al (at 10 μM); other: compou; fused on or other part: EGFP fused to the receptor as FRET donor", "settings": "for λ1/λ2 amplitudes (rapid/slow) of dissociation of NKA-Bo: 30/70 without 805", "method": "Dissociation (FIG. 4B): HEK 293 cells expressing the receptor EGFP-NK2R are put into suspension at a concentration of 1,000,000 cells/ml in Hepes physiological buffer (in mM: 137.5 NaCl; 1.25 MgCl2; 1.25 CaCl2; 6 KCl; 5.6 glucose; 10 Hepes; 0.4 NaH2PO4; 1% BSA (w/v); pH 7.4) and arranged in a 1 ml cuvette equipped with a magnetic stirrer on the cuvette holder of a SPEX fluorolog 3 spectrofluorimeter.\nThe amplitude of each relaxation is then given by the adjustment of the experimental traces."}}, "data": [{"smiles": "N#CCN(Cc1ccccc1)Cc1ccc2ccccc2c1", "note": "[compound 805, [benzyl(2-naphthylmethyl)amino]acetonitrile]", "values": [{"measurement": "effect on the calcium response caused by substance P", "setting": "[1]", "result": "increases the amplitude of the response"}, {"measurement": "λ1/λ2 amplitudes (rapid/slow) of dissociation of NKA-Bo", "setting": "[2]; 1 μM 805", "result": "35/65"}, {"measurement": "λ1/λ2 amplitudes (rapid/slow) of dissociation of NKA-Bo", "setting": "[2]; 50 μM 805", "result": "80/20"}, {"measurement": "% al (max): maximum value observed for the increase in amplitude of the rapid dissociation rate", "setting": "[2]; Table 1, ns = not significant", "result": 80, "unit": "%"}, {"measurement": "% al (at 10 μM)", "setting": "[2]; compound 10 μM, T = 22 ± 1 is amplitude of rapid dissociation in the absence of effector", "result": "29 (10 μM) %"}, {"measurement": "EC50", "setting": "[2]; read-out: EC50 (μM): concentration of compound causing a 50% increase (relative to the maximum value) in the percentage of the amplitude of the rapid dissociation rate, Table 1, dissociation of NKA-Bo from EGFP-NK2R, ns = not significant", "result": "3 to 8", "unit": "µM"}]}]}
